Reference: the NIST ThermoML archive (doi:10.1016/j.jct.2017.06.006)

Assay: mn = molality of the nth substance listed, in mol/kg
Conditions: 100 kPa, Liquid, Vibrating tube method

CCCCn1cc[n+](C)c1C.[Br-] [1-butyl-2,3-dimethylimidazolium bromide] + O
m1 = 0.1
Conditions | mass density [kg/m3]
283.15 K | 1004.75
288.15 K | 1004.08
293.15 K | 1003.12
298.15 K | 1001.89
303.15 K | 1000.44

N[C@@H](Cc1ccccc1)C(=O)O [L-phenylalanine] + O
mass density [kg/m3]
Conditions | m1 = 0.0102 | m1 = 0.0203 | m1 = 0.0293 | m1 = 0.0398 | m1 = 0.0509 | m1 = 0.0606 | m1 = 0.061 | m1 = 0.0736 | m1 = 0.0915 | m1 = 0.1028
283.15 K | 1000.19 | 1000.64 | 1001.05 | 1001.53 | 1002.02 | 1002.47 | 1002.49 | 1003.05 | 1003.87 | 1004.36
288.15 K | 999.59 | 1000.04 | 1000.44 | 1000.91 | 1001.39 | 1001.83 | 1001.85 | 1002.4 | 1003.2 | 1003.69
293.15 K | 998.69 | 999.13 | 999.52 | 999.98 | 1000.46 | 1000.9 | 1000.91 | 1001.45 | 1002.24 | 1002.73
298.15 K | 997.52 | 997.95 | 998.35 | 998.8 | 999.27 | 999.7 | 999.71 | 1000.25 | 1001.03 | 1001.5
303.15 K | 996.12 | 996.54 | 996.93 | 997.38 | 997.85 | 998.27 | 998.28 | 998.81 | 999.58 | 1000.05

O [water] + CCCCn1cc[n+](C)c1C.[Br-]
Conditions | mass density [kg/m3]
283.15 K, m2 = 0 | 999.72

O [water] + N[C@@H](Cc1ccccc1)C(=O)O
Conditions | mass density [kg/m3]
283.15 K, m2 = 0 | 999.72
